Measurements as given in PubChem BioAssay (NCI).
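Values below derive from 48-hour exposures of cells grown in 96-well plates, with endpoints linearly interpolated between the two concentrations bracketing the appropriate inhibition level. GI50: concentration for 50% inhibition of growth. TGI is the concentration that stops growth completely.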

Columns and labels:
Test in all cases: DTP human tumour cell line panel, 48 h
HOP-92 NSCLC = test system: HOP-92 NSCLC
NCI-H226 lung = test system: NCI-H226 lung
786-0 renal = test system: 786-0 renal
SF-295 CNS = test system: SF-295 CNS
ACHN renal = test system: ACHN renal
HT29 colon = test system: HT29 colon
HL-60(TB) leukemia = test system: HL-60(TB) leukemia
SK-MEL-28 melanoma = test system: SK-MEL-28 melanoma
MDA-MB-435 = test system: MDA-MB-435
SK-MEL-5 melanoma = test system: SK-MEL-5 melanoma

Structure (SMILES)	TGI (HOP-92 NSCLC)	TGI (NCI-H226 lung)	TGI (786-0 renal)	TGI (SF-295 CNS)	TGI (ACHN renal)	TGI (HT29 colon)	TGI (HL-60(TB) leukemia)	TGI (SK-MEL-28 melanoma)	TGI (MDA-MB-435)	TGI (SK-MEL-5 melanoma)	GI50 (NCI-H226 lung)	GI50 (786-0 renal)	GI50 (SF-295 CNS)	GI50 (ACHN renal)	GI50 (HT29 colon)	GI50 (SK-MEL-28 melanoma)	GI50 (MDA-MB-435)	GI50 (SK-MEL-5 melanoma)	GI50 (HL-60(TB) leukemia)
COC(=O)C(C(=O)C(=O)NC1=C(Cl)C(=O)c2ccccc2C1=O)c1csc(-n2nc(-c3ccccc3)cc2-c2ccccc2)n1 (configuration not stated)	> 100 µM	> 100 µM	> 100 µM	> 100 µM	> 100 µM	> 100 µM	> 100 µM	–	–	–	–	–	–	–	–	–	–	–	–
Cc1cc(C)c(O)c(Cc2cccc(Cc3cc(C)cc(C)c3O)c2O)c1	> 100 µM	–	> 100 µM	> 100 µM	> 100 µM	> 100 µM	–	> 100 µM	> 100 µM	> 100 µM	–	–	–	–	–	–	–	–	–
COC(=O)N/N=C(/CCN1CCCC1)CC(c1ccccc1)c1c(O)c2ccccc2oc1=O (configuration not stated)	–	> 100 µM	> 100 µM	> 100 µM	> 100 µM	> 100 µM	> 100 µM	> 100 µM	–	> 100 µM	–	–	–	–	–	–	–	–	–
NC(=O)N/N=C(\C(=O)C(=O)Nc1ccc(Cl)c(C(F)(F)F)c1)c1nc2ccc(C(=O)c3ccccc3)cc2[nH]c1=O	47.3 µM	> 100 µM	> 100 µM	> 100 µM	> 100 µM	> 100 µM	–	> 100 µM	–	> 100 µM	–	–	–	–	–	–	–	–	–
N/C(=N\N=C\c1cccs1)NO	> 100 µM	> 100 µM	> 100 µM	> 100 µM	> 100 µM	> 100 µM	> 100 µM	> 100 µM	–	–	–	–	–	–	–	–	–	–	–
COc1cc(-c2cc(=O)c3ccccc3o2)ccc1N	> 100 µM	96.6 µM	> 100 µM	> 100 µM	> 100 µM	> 100 µM	71.5 µM	> 100 µM	–	> 100 µM	–	–	–	–	–	–	–	–	–
COc1ccc(-c2nn(-c3cccc(NC(=O)Nc4ccc(Cl)c(C(F)(F)F)c4)c3)cc2-c2ccncc2)cc1Cl	–	8.22 µM	4.49 µM	7.23 µM	13.8 µM	13.1 µM	–	13.3 µM	5.92 µM	3.61 µM	2.53 µM	1.91 µM	2.31 µM	2.32 µM	3.18 µM	3.08 µM	2.16 µM	1.69 µM	–
O=C1C(=O)N(C(=O)c2ccc(Cl)c(Cl)c2)c2ccc(Cl)cc21	–	> 100 µM	> 100 µM	> 100 µM	> 100 µM	> 100 µM	61.6 µM	> 100 µM	–	> 100 µM	–	–	–	–	–	–	–	–	–
CC1(C)OC(C(N)=O)=C(C(N)=O)O1	> 100 µM	> 100 µM	> 100 µM	> 100 µM	> 100 µM	> 100 µM	> 100 µM	> 100 µM	–	–	–	–	–	–	–	–	–	–	–
CN(C)C(=O)/N=c1\ss/c(=N\C(=S)N(C)C)n1-c1ccccc1	> 100 µM	> 100 µM	47.1 µM	> 100 µM	> 100 µM	–	44.8 µM	> 56.6 µM	–	> 100 µM	–	–	–	–	–	–	–	–	6.59 µM
Cc1ccc([N+](=O)[O-])cc1NC(=O)C(=O)Cc1occc(=O)c1O	> 100 µM	> 100 µM	> 100 µM	> 100 µM	> 100 µM	> 100 µM	> 100 µM	> 100 µM	–	> 100 µM	–	–	–	–	–	–	–	–	–
O=C(/C=C\c1cccc2ccccc12)c1cccs1	25.8 µM	–	22.5 µM	34.6 µM	24.1 µM	17.4 µM	15.6 µM	28 µM	–	26.1 µM	–	–	–	–	–	–	–	–	–
COc1cc(/C=C2\[C@H]3c4c(c(OC)c(C)c(OC)c4OC)C[C@@H](C(=O)N2Cc2ccccc2)N3C(=O)OC(C)C)c(OC)c(C)c1OC	> 100 µM	56.2 µM	> 100 µM	> 100 µM	> 100 µM	> 100 µM	> 100 µM	> 100 µM	–	> 100 µM	–	–	–	–	–	–	–	–	–
CCC(C)OC(=O)C1C2CCC(O2)C1C(=O)O (configuration not stated)	> 100 µM	> 100 µM	> 62.7 µM	> 100 µM	> 100 µM	> 66.2 µM	> 100 µM	> 100 µM	–	> 100 µM	–	–	–	–	–	–	–	–	–
COC(=O)C(C(=O)C(=O)Nc1ccccc1C(C)=O)c1nc2ccc(Cl)cc2[nH]c1=O (configuration not stated)	> 100 µM	> 100 µM	> 100 µM	> 100 µM	> 100 µM	> 100 µM	> 100 µM	> 100 µM	–	> 100 µM	–	–	–	–	–	–	–	–	–
O=C(O)c1ccc(O)c(N=Nc2cc(S(=O)(=O)O)c3ccccc3c2O)c1	> 100 µM	> 100 µM	> 100 µM	> 10 µM	> 100 µM	> 100 µM	> 100 µM	> 100 µM	–	> 100 µM	–	–	–	–	–	–	–	–	–
C#CCOCn1cnc2c(=S)nc[nH]c21	> 100 µM	> 100 µM	> 100 µM	> 100 µM	> 100 µM	> 100 µM	> 100 µM	> 100 µM	–	> 100 µM	–	–	–	–	–	–	–	–	–
C/C=C/C=N/N(C(=O)c1cc([N+](=O)[O-])cc([N+](=O)[O-])c1)C1=NC(c2ccccc2)C(c2ccccc2)=NN1 (configuration not stated)	62.2 µM	> 100 µM	> 100 µM	> 100 µM	> 100 µM	> 100 µM	55.6 µM	> 100 µM	–	81.8 µM	–	–	–	–	–	–	–	–	–
O=C1N=C(c2ccccc2)OC1C(=O)c1ccccc1 (configuration not stated)	–	> 100 µM	> 100 µM	> 100 µM	> 100 µM	> 100 µM	> 100 µM	> 100 µM	> 100 µM	> 100 µM	–	–	–	–	–	–	–	–	–
N=C1N(c2ccccc2)C(=O)C23CCCC2C13N1CCOCC1 (configuration not stated)	> 100 µM	> 100 µM	> 100 µM	> 100 µM	> 100 µM	> 100 µM	> 100 µM	> 100 µM	–	> 100 µM	–	–	–	–	–	–	–	–	–
Nc1ncnc(NC2C=C(CO)C(O)C2O)c1[N+](=O)[O-] (configuration not stated)	–	> 100 µM	> 100 µM	> 100 µM	> 100 µM	> 100 µM	> 100 µM	> 100 µM	–	> 100 µM	–	–	–	–	–	–	–	–	–
COC(=O)C(=O)C(C(=O)C(=O)Nc1ccc(Cl)cc1C)c1nc2ccc(C(=O)c3ccccc3)cc2[nH]c1=O (configuration not stated)	> 100 µM	> 100 µM	> 100 µM	> 100 µM	> 100 µM	> 100 µM	> 100 µM	–	–	–	–	–	–	–	–	–	–	–	–
CN=C1Nc2ccc(Cl)cc2C(c2ccccc2)=NN1C	77.5 µM	> 100 µM	> 100 µM	> 100 µM	> 100 µM	> 100 µM	> 100 µM	> 100 µM	–	> 100 µM	–	–	–	–	–	–	–	–	–
